We go through one compound from publication PMC12373499 (Nature Metabolism, 2025).

Where “and” joins values, the source holds several entries; their conditions need not be identical. Equal entries are not always repeated. Where a SMILES comes first, the peptide text is derived from it. [ ]: non-standard residue; d: D form. The star is where a group is joined. X1 = CN1C(=CC=CC=CC2=[N+](CCCCCC(=O)NCCN3C(=O)CC(*)C3=O)c3ccccc3C2(C)C)C(C)(C)c2ccccc21; Aib = CC(C)(N)C(=O)O

One assay deals with T1, Nluc–GLP1R (hGLP1R) (Homo sapiens, UniProt P43220).
T1 construct: expressed in transfected cells; host or cells: HEK293T cells, transient expression
T1 sequence (P43220 24-463): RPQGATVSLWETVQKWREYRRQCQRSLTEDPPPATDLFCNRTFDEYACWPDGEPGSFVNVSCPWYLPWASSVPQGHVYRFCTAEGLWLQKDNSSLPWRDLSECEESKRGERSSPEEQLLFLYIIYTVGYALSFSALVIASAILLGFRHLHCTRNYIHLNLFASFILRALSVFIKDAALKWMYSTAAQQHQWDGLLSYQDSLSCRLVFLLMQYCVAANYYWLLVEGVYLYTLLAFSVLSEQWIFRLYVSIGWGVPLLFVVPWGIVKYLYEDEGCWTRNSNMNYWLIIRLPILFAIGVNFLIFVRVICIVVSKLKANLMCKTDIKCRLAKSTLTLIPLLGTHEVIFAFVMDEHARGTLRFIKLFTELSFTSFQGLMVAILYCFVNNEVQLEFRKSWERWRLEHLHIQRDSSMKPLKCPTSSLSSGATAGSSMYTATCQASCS
Kind of assay: NanoBRET saturation binding assay, HEK293T cells. The procedure: (§1) HEK293T cells (RRID:CVCL_0063) were cultured in DMEM/F12 GlutaMAX (ThermoFisher), supplemented with 10% FBS and 1% antibiotic-antimycotic solution and cultured at 37 °C, 5% CO2. HEK293T cells were authenticated at source using STR profiling. […] Media was then removed and the cells were incubated in PBS supplemented with 0.1% BSA and 0.01% NanoGlo (Promega). […] Plates were read using a PheraSTAR microplate reader, using the NanoBRET filter module. BRET ratios (λacceptor/λdonor) were calculated, and saturation data fit using the ‘One Site – Specific Binding’ equation of GraphPad Prism 10. Competition binding was fit using the ‘One Site – Fit Ki’ equation.
In general terms: BRET reads energy transfer from a luciferase to a nearby fluorophore.

The next assay has as its target T2, Nluc–GIPR (hGIPR) (Homo sapiens, UniProt P48546).
T2 construct: expressed in transfected cells; host or cells: HEK293T cells, transient expression
T2 sequence (P48546 22-466): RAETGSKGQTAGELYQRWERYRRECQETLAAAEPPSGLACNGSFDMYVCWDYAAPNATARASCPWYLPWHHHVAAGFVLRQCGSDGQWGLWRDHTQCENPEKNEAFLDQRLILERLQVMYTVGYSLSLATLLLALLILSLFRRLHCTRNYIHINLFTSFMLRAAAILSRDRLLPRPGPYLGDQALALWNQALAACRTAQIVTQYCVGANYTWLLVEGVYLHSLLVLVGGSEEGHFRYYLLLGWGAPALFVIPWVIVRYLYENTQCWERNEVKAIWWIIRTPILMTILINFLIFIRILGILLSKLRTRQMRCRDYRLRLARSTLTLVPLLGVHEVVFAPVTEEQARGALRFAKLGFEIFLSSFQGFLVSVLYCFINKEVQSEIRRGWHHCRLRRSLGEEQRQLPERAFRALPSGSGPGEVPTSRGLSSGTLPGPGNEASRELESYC
Kind of assay: NanoBRET saturation binding assay, HEK293T cells. The procedure:
as §1

The next assay concerns C57BL/N mice. Kind of assay: Food intake study (FED3 devices). Format: in vivo, mouse. The settings on record: 10 nmol kg^−1 s.c., dark phase and cumulative 24 h, n = 8 mice. As to the method: Male and female 12–14 week old C57BL/N mice were singly housed in a 12 h dark–light cycle (14:00–02:00 h) and habituated to FED3 feeding devices for 7 days before commencing the study. All mice were kept on a 12 h light–dark cycle at 20–24 °C and 45–65% relative humidity (typically 21 °C and 55%). On test days, mice were fasted for 3 h before onset of the dark phase by removal of the FED3 devices. […] The study was performed using a three-way crossover design. A 1-week washout period was observed between experimental days. FED3 devices were checked, serviced and food was topped up daily.

In assay [1] the test system is Glp1r^WT/WT, Glp1r^WT/KO and Glp1r^KO/KO mice. Kind of assay: Glucose tolerance testing (IPGTT). Format: in vivo, mouse. Details: Area under the curve for IPGTT: unit not given beside the values. The settings on record: for Area under the curve for IPGTT: individual mice. The procedure: Glucose was measured in blood from the tail vein at 0, 15, 30, 60, 90 and 120 min post glucose challenge. Mice were socially housed in specific-pathogen-free conditions under a 12 h light–dark cycle with ad libitum access to food and water, relative humidity 55 ± 10% and temperature 21 ± 2 °C.

Where [2] appears, read: One site -- Specific binding, fit of all pooled points.

`CC[C@H](C)[C@H](NC(=O)[C@H](CC(C)C)NC(=O)[C@H](Cc1c[nH]c2ccccc12)NC(=O)[C@H](CCC(N)=O)NC(=O)[C@@H](NC(=O)[C@H](Cc1ccccc1)NC(=O)[C@H](C)NC(=O)[C@H](CCCCN)NC(=O)[C@H](CCC(N)=O)NC(=O)[C@H](C)NC(=O)[C@@H](NC(=O)[C@H](CCCCN)NC(=O)[C@H](CC(=O)O)NC(=O)[C@H](CC(C)C)NC(=O)C(C)(C)NC(=O)[C@@H](NC(=O)[C@H](CO)NC(=O)[C@H](Cc1ccc(O)cc1)NC(=O)[C@H](CC(=O)O)NC(=O)[C@H](CO)NC(=O)[C@@H](NC(=O)[C@H](Cc1ccccc1)NC(=O)[C@@H](NC(=O)CNC(=O)[C@H](CCC(=O)O)NC(=O)C(C)(C)NC(=O)[C@@H](N)Cc1ccc(O)cc1)[C@@H](C)O)[C@@H](C)O)[C@@H](C)CC)[C@@H](C)CC)C(C)C)C(=O)N[C@@H](C)C(=O)NCC(=O)NCC(=O)N1CCC[C@H]1C(=O)N[C@@H](CO)C(=O)N[C@@H](CO)C(=O)NCC(=O)N[C@@H](C)C(=O)N1CCC[C@H]1C(=O)N1CCC[C@H]1C(=O)N1CCC[C@H]1C(=O)N[C@@H](CSC1CC(=O)N(CCNC(=O)CCCCC[N+]2=C(C=CC=CC=C3N(C)c4ccccc4C3(C)C)C(C)(C)c3ccccc32)C1=O)C(N)=O` (stereo partly drawn) [daLUXendin660] (H-Y[Aib]EGTFTSDYSI[Aib]LDKIAQKAFVQWLIAGGPSSGAPPPC(X1)-NH2): the “Bmax best-fit (nM), hGLP1R” value on Nluc–GLP1R (hGLP1R) (Nluc-tagged hGLP1R, NanoBRET saturation, n = 3 independent repeats) was 0.0140 nM. In addition, the “Bmax, best-fit value, GLP1R” value at Nluc–GLP1R (hGLP1R) (setting [2]) is given as 0.0163. The “Bmax best-fit (nM), hGIPR” value at Nluc–GIPR (hGIPR) (Nluc-tagged hGIPR, NanoBRET saturation, n = 3 independent repeats) is on record as 0.0080 nM. Moreover, the “Bmax, best-fit value, GIPR” value on Nluc–GIPR (hGIPR) (setting [2]) worked out at 0.01181. Besides, the “effect on food intake” value in the assay with C57BL/N mice is listed as “reduced food intake”. The “effect on blood glucose in glucose tolerance test” value in assay [1] (10 nmol kg^−1, Glp1r^WT/WT and Glp1r^WT/KO mice) was “substantial glucose-lowering effects”. Also, the “Area under the curve for IPGTT” value in assay [1] (GLP1RKO/KO (KO) mice) is 1726.5 and 1785 and 1967.25 and 1908.75 and 1827 and 1220.25 and 1424.25; in assay [1] (GLP1RWT/WT and GLP1RWT/KO (WT) mice), 2001 and 1668.75 and 1041.75 and 969.75 and 1068. The “Area under the curve for IPGTT, mean” value in assay [1] (KO mice, group mean (n = 6 TZP, n = 7 daLUX)) turned out to be 1694; in assay [1] (WT mice, group mean (n = 6 TZP, n = 5 daLUX)) it was 1350. Also, the “Area under the curve for IPGTT, Mean Diff. WT Veh vs. WT treated” value in assay [1] (WT mice, one-way ANOVA, Benjamini, Krieger and Yekutieli) is 966.4. Further, the “Area under the curve for IPGTT, Mean Diff. WT treated vs. KO treated” value in assay [1] (WT vs. KO mice, one-way ANOVA, Benjamini, Krieger and Yekutieli) is reported as -344.3.
